Calls of active or inactive are those of the source.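 The calls were made as follows: active = more than half of replicate measurements showing over 20% loss of kinase signal relative to plate controls; inconclusive = some but at most half of replicates over 20% loss; inactive = no replicate over 20% signal loss.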
The compounds below were run against Glycogen synthase kinase-3 alpha (Homo sapiens) (UniProt P49840) (assay: concentration-response blocking of human GSK3A – biochemical, luminescence, cell-free homogeneous, retest, dose response (AID 463203)). Conditions: GSK-3 alpha enzyme, ADP-Glo luminescence, 60 min.
Sequence of Glycogen synthase kinase-3 alpha (Homo sapiens) (P49840 whole entry, looked up): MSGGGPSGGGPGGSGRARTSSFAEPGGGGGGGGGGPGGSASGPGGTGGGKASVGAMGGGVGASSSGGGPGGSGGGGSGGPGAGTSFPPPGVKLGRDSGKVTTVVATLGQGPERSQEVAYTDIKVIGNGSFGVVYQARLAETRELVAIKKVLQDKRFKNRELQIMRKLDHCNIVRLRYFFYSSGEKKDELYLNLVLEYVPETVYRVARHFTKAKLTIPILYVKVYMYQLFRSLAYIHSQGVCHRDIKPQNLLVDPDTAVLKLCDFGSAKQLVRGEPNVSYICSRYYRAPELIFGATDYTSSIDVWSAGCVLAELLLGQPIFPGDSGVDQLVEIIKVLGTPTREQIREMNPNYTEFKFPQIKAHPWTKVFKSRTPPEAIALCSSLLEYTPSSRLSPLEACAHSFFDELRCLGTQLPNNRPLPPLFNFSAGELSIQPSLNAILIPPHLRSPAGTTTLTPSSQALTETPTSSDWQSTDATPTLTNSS

Row | SMILES | AC50
1 | Cc1ccc2c(c1)COc1c3ccc(C(=O)N4CCCCC4)cc3nn1-2 | > 30 µM (inactive)
2 | CN(C)CCCNS(=O)(=O)c1ccc(-n2nnc3ccccc32)c([N+](=O)[O-])c1 | > 30 µM (inactive)
3 | CN1CCN(c2nc(NCc3ccco3)nc(N)c2[N+](=O)[O-])CC1 | > 30 µM (inactive)
4 | CC(C)N=C(NC#N)SCc1ccccc1F | > 30 µM (inactive)
5 | COc1ccc(C=O)cc1OS(=O)(=O)c1ccccc1[N+](=O)[O-] | > 30 µM (inactive)
6 | CCCCc1ccc(NC(=O)N[C@@H](C)C(=O)O)cc1 | > 30 µM (inactive)
7 | CC(=O)Nc1c(C)ccc2nsnc12 | > 30 µM (inactive)
8 | CC(=NCCO)c1c(O)n(C2CCCCC2)c(=O)[nH]c1=O | 26.9 µM
9 | N#Cc1c2ccc(O)cc2n2ccccc12 | 3.56 µM
10 | CCC(=O)N1CCN(c2cc(NCC3CCCO3)c(F)cc2[N+](=O)[O-])CC1 (centres undefined) | 21.7 µM
11 | Cc1cccc(-n2ncc(C#N)c2-n2cccc2)c1 | > 30 µM (inactive)
12 | O=C(CSc1ccccc1)Nc1nnc(C2CC2)s1 | > 30 µM (inactive)
13 | Cc1ccc(O)c(C(=O)c2coc(=N)c(C(=O)NC(C)C)c2)c1 | 22.1 µM
14 | CCN1CCN(c2nc(N(C)c3ccccc3)nc(N)c2[N+](=O)[O-])CC1 | > 30 µM (inactive)
15 | COc1ccc(-n2c(C)c([N+](=O)[O-])c3ccc(O)c(CN(C)C)c32)cc1 | 5.94 µM
16 | CCCOc1ccc(-c2nnc(N)s2)cc1 | > 30 µM (inactive)
17 | Cc1nc(Nc2ccc(C(=O)O)cc2)nc(Nc2ccc(C(=O)O)cc2)c1[N+](=O)[O-] | 11.7 µM
18 | COCCNc1nc(N)c([N+](=O)[O-])c(NCc2ccccc2)n1 | 7.15 µM
19 | O=C(CSc1ccc2nnc(-c3ccccc3)n2n1)N1CCCc2ccccc21 | > 30 µM (inactive)
20 | CC(C)c1ccc(/C=N/NC(=O)c2nnn(-c3nonc3N)c2CN(C)C2CCCCC2)cc1 | > 30 µM (inactive)
21 | O=c1ccc(-c2nc3ccccc3n2Cc2ccc(Cl)cc2)c[nH]1 | > 30 µM (inactive)
22 | CCOC(=O)c1nnn(-c2nonc2N)c1COc1cc(C)c(Cl)c(C)c1 | 6.9 µM
23 | CC1=C(C(=O)OC(C)C)C(c2cccc(F)c2)n2ncnc2N1 (centres undefined) | > 30 µM (inactive)
24 | CCn1c(C)nc2cc(-c3nnc(-c4c(-c5ccccc5)noc4C)o3)ccc21 | > 30 µM (inactive)
25 | COc1ccc(CCNC(=O)CSc2nc3[nH]ncc3c(=O)n2-c2cccc(C(F)(F)F)c2)cc1OC | > 30 µM (inactive)
26 | COc1cc(C2c3sc(=O)[nH]c3SC3C(=O)N(c4ccc(Br)cc4)C(=O)C32)ccc1O (centres undefined) | > 30 µM (inactive)

Row | SMILES | AC50
27 | CCc1nnc(NC(=O)c2cccc(S(=O)(=O)N3CC(c4ccccc4)CC3=O)c2)s1 (centres undefined) | > 30 µM (inactive)
28 | O=C(CCN1CCOCC1)Nc1cccc(Br)c1 | > 30 µM (inactive)
29 | NS(=O)(=O)c1ccc(Nc2nc(-c3ccc(F)cc3)cs2)cc1 | 26.2 µM
30 | Cc1ccc(-c2nc3ncccn3c2Nc2ccc3c(c2)OCCO3)cc1 | > 30 µM (inactive)
31 | NS(=O)(=O)c1ccc(NC(=O)CSc2nnc(-c3ccc(O)cc3)o2)cc1 | 4.93 µM
32 | CC(=O)Oc1cc(O)c2c(=O)c(OC(C)=O)c(-c3ccc(OC(C)=O)c(OC(C)=O)c3)oc2c1 | 15.4 µM
33 | O=c1[nH]c2c(s1)C(c1cccnc1)C1C3CCC(C3)C1S2 (centres undefined) | 8.66 µM
34 | COc1cccc2cc(C(=O)NCc3ccco3)c(=O)oc12 | > 30 µM (inactive)
35 | FC(F)(F)c1nnc2n1N=C(c1cccs1)CS2 | > 30 µM (inactive)
36 | CCCC1=C(C(=O)OCC)C(c2cccnc2)n2nc(C)nc2N1 (centres undefined) | > 30 µM (inactive)
37 | COc1ccc(C2CC(=O)N3CN(c4ccccc4F)CSC3=C2C#N)cc1OC (centres undefined) | > 30 µM (inactive)
38 | COc1ccccc1OCCNC(=O)C1CCN(C(C)=O)CC1 | > 30 µM (inactive)
39 | COc1ccc2nc(NC(=O)CSc3nc4ccccc4o3)sc2c1 | 28.8 µM
40 | COc1ccc(Nc2cc(C)nc(N)n2)cc1 | > 30 µM (inactive)
41 | CCOC(=O)c1cc(C)sc1NC(=O)CCC(=O)O | > 30 µM (inactive)
42 | COc1ccc(NC(=O)Nc2cc(F)ccc2C)cc1 | > 30 µM (inactive)
43 | Cc1ccc(Cn2nc(-c3ccccc3)nc2-c2ccccc2)cc1 | > 30 µM (inactive)
44 | O=c1c(O)cccc2cc(O)c(O)c(O)c12 | 21.1 µM
45 | CCc1ccccc1NC(=O)CSc1nnc([C@@H](N)Cc2c[nH]c3ccccc23)o1 | > 30 µM (inactive)
46 | NC(=O)c1ccc(N=C2C(=O)Nc3ccc([N+](=O)[O-])cc32)cc1 | > 30 µM (inactive)
47 | Cn1c(N=Nc2ccccc2)nc2ccccc21 | 21.1 µM
48 | Cc1cccc(C)c1OCC(O)CNC(C)C (centres undefined) | > 30 µM (inactive)
49 | COc1ccc(CC(=O)N2CCOCC2)cc1OC | > 30 µM (inactive)
50 | CC(C)CSc1ncnc2c1oc1nc3c(cc12)COC(C)(C)C3 | > 30 µM (inactive)
51 | COC(=O)c1cnn(C(=O)c2ccccc2Br)c1N | > 30 µM (inactive)
52 | COc1ccc(CCNC2=C(Cl)C(=O)N(Cc3ccccc3)C2=O)cc1OC | > 30 µM (inactive)

Row | SMILES | AC50
53 | CCOC(=O)c1sc(NC(=O)C2CC2)cc1C | > 30 µM (inactive)
54 | Cc1ccc(C2C(C#N)=C(N)Oc3nc(-c4ccccc4)[nH]c32)o1 (centres undefined) | > 30 µM (inactive)
55 | COc1cc(O)cc2c1C(=O)OC(C)CCCC(=O)CCC/C=C\2 (centres undefined) | > 30 µM (inactive)
56 | Cc1ccc2nc3c(cc2c1)c(NS(=O)(=O)c1ccccc1)nn3CC(C)C | > 30 µM (inactive)
57 | Cc1ccnc(NC(=O)Cn2c(=O)oc3cc(S(=O)(=O)N4CCCC4)ccc32)c1 | 26.9 µM
58 | NC(=O)c1cc([N+](=O)[O-])c(Cl)cc1NCc1cccnc1 | 4.43 µM
59 | COc1ccccc1C(=O)NNC(=O)c1cccc(Cl)c1 | > 30 µM (inactive)
60 | Cc1ccc(Sc2nc(-c3ccccc3)nnc2C(F)(F)F)cc1 | > 30 µM (inactive)
61 | CCOC(=O)C1CCN(c2c(C(=O)c3ccccc3)cnc3ccc(Cl)cc23)CC1 | > 30 µM (inactive)
62 | Cc1ccc(N(CC(O)CN2CCCC2)S(=O)(=O)c2ccccc2)cc1 (centres undefined) | > 30 µM (inactive)
63 | COc1ccc(-c2cc(C(F)(F)F)nc(SCC(=O)NCc3cccs3)n2)cc1OC | > 30 µM (inactive)
64 | O=C(Nc1ccccc1N1CCN(C(=O)c2ccccc2)CC1)c1ccc(Br)o1 | 3.51 µM
65 | CCCCCCCCOC(=O)C1=C(C)Nc2nnnn2C1c1cccs1 (centres undefined) | > 30 µM (inactive)
66 | COc1ccc2c3c(cccc13)C(=O)CC2 | > 30 µM (inactive)
67 | CCc1cc(C(=O)c2ccc(C)cc2)c(NC(=O)CCl)s1 | > 30 µM (inactive)
68 | O=C1Nc2ccccc2C1(O)c1ccccc1O (centres undefined) | > 30 µM (inactive)
69 | Oc1ccc2oc3c(c2c1/C=N/n1cnnc1)CCCC3 | > 30 µM (inactive)
70 | CN(C(=O)/C=C/c1ccc2c(c1)OCO2)c1ccccc1 | 6.73 µM
71 | COc1ccc(C2=Nn3c(nnc3-c3cccnc3)SC2)cc1OC | > 30 µM (inactive)
72 | Cc1noc(C)c1COc1ccc2ccc(=O)oc2c1 | > 30 µM (inactive)
73 | COCCCNc1nc2ccccc2[nH]c1=O | > 30 µM (inactive)
74 | CCOc1cc(C(c2c(C)[nH][nH]c2=O)c2c(C)[nH][nH]c2=O)ccc1O | > 30 µM (inactive)
75 | CCN1CCN(Cc2cc(OC)c(OC)cc2[N+](=O)[O-])CC1 | > 30 µM (inactive)
76 | CC1(C)CC(=O)C(C2c3ccccc3Oc3ccccc32)C(=O)C1 | > 30 µM (inactive)
77 | CS(=O)(=O)N1CCN(c2ccccc2NC(=O)c2ccc(Br)o2)CC1 | 1.94 µM
78 | CCSc1nc2sc3c(c2c(=O)n1-c1ccccc1C)CCN(C)C3 | > 30 µM (inactive)

Row | SMILES | AC50
79 | CC(C)NC(=O)Nc1n[nH]c(Nc2ccc(Cl)cc2)n1 | 4.87 µM
80 | C=CCN=C1NN=C(c2ccc3c(c2)OCCO3)CS1 | > 30 µM (inactive)
81 | COc1ccc(-c2nc(NC(=O)C3CC(=O)N(c4ccc5c(c4)OCCO5)C3)sc2C)cc1 (centres undefined) | > 30 µM (inactive)
82 | NC(=O)c1cc([N+](=O)[O-])ccc1NCc1cccc(N)c1 | 15.6 µM
83 | CCOc1cccc(-c2c(C(=O)N/N=C(\C)c3ccccn3)nnn2-c2nonc2N)c1 | 2.56 µM
84 | CSc1nc(SCCN(C)C)c2c3c(sc2n1)COC(C)(C)C3 | > 30 µM (inactive)
85 | Cc1ccc(Cc2c(C)nc3nc(SCC(=O)NCCCN4CCCCCC4)nn3c2C)cc1 | > 30 µM (inactive)
86 | COC(=O)c1oc2ccc(Cl)cc2c1N | > 30 µM (inactive)
87 | COc1cccc(/C=N/Nc2ccc([N+](=O)[O-])cn2)c1O | > 30 µM (inactive)
88 | CCOC(=O)N1CCc2c(sc3nc4n(c(=O)c23)N=C(C)CS4)C1 | > 30 µM (inactive)
89 | CC(=O)Nc1ccc(NC(=O)CSc2nc3[nH]ncc3c(=O)n2-c2ccccc2)cc1 | > 30 µM (inactive)
90 | COc1cc(O)c(NC(C)=O)c2nonc12 | > 30 µM (inactive)
91 | O=C(CCc1nnc(-c2ccc3c(c2)OCO3)o1)N1CCC(c2ccc(F)cc2)C1 (centres undefined) | 10 µM
92 | COc1cccc(-n2c(SCC(=O)NC3CCCC3)nnc2-c2ccco2)c1 | > 30 µM (inactive)
93 | CCOC(=O)c1nnn(-c2nonc2OC)c1-c1ccccc1 | > 30 µM (inactive)
94 | C[C@H](CO)N1C[C@H](C)[C@@H](CN(C)S(=O)(=O)c2ccccc2)Oc2c(NC(=O)c3ccncc3)cccc2C1=O | > 30 µM (inactive)
95 | COc1ccc(OC)c(C2=Nn3c(nnc3-c3ccncc3)SC2)c1 | 1.5 µM
96 | N#CC1=C(SCc2ccccc2)NC(=O)CC1c1ccco1 (centres undefined) | > 30 µM (inactive)
97 | Cc1ccc(C(=O)c2c(NC(=O)CSc3nnc(N)s3)sc3c2CCCC3)cc1 | > 30 µM (inactive)
98 | CC1(C)Cc2c(sc3ncn(N)c(=N)c23)CO1 | > 30 µM (inactive)
99 | O=C(c1ccc(Cn2cnnn2)cc1)N1CCCC(Nc2ccc(F)c(F)c2)C1 (centres undefined) | 16.1 µM
100 | FC(F)(F)COc1ccc(-c2nnc(SCc3c(Cl)cccc3Cl)o2)cn1 | > 30 µM (inactive)
101 | CSc1ccc(CN2CCN(Cc3ccc([N+](=O)[O-])cc3)CC2)cc1 | > 30 µM (inactive)
102 | COc1ccccc1-n1c(O)c(C=NCCCn2ccnc2)c(=O)[nH]c1=O | 18.1 µM
103 | CCN1/C(=C\C(C)=O)Sc2ccc(OC)cc21 | 17.4 µM
104 | CC(C)(C)c1ccc(CSc2nnc(-c3ccccc3NC(=O)c3ccccc3)o2)cc1 | > 30 µM (inactive)

From PubChem BioAssay AID463203 (Broad Institute, 2010)
